# Patent US10421781B2, “Antimicrobial peptide and use thereof” (NOVACELL TECHNOLOGY INC., priority 2015, dated 2019)
# Columns and labels:
# [1] = antibacterial activity of N-terminally lipid-modified peptides; assay type: cell-based; conditions: compared with peptides carrying other lipid groups (palmitoyl etc.) at the N-terminus
# Text: In order to further improve the antibacterial activity of the peptides that underwent the basic screening in Example 1, the present inventors have examined the antibacterial activity of these peptides by synthesizing modified peptides in which various lipid components, such as a palmitoyl group, an octanoyl group, etc., were attached to the N-terminus of these peptides.
# Pseudomonas aeruginosa = test: antibacterial test in nutrient broth (absorbance at 600 nm); assay type: cell-based
# Experimental: (§1) In order to further improve the antibacterial activity of the peptides prepared in Example 2, an antibacterial test was performed. Gram-positive bacteria Staphylococcus epidermidis and Staphylococcus aureus) and gram-negative bacteria (Pseudomonas aeruginosa and E. coli) were prepared, streaked on agar plate medium using a four-quadrant sequential streak technique, and cultured in a 36° C. incubator overnight. On the next day, the strain colonies on the agar plate medium were inoculated into nutrient broth (3 mL) and cultured overnight at 36° C. and 220 rpm in a shaking incubator. On the next day, the bacteria culture was diluted and the absorbance at 600 nm was measured and adjusted to 0.5. Then, the bacteria culture was diluted in nutrient broth in a 1:100 ratio. Then, the peptides prepared in Example 2 were sequentially diluted in nutrient broth at concentrations of 0 μM, 1.25 μM, 2.5 μM, 5 μM, 10 μM, and 20 μM in an amount of 1 mL, respectively, and 1 mL of the diluted bacteria was inoculated, and cultured overnight at 36° C. and 220 rpm in a shaking incubator for 18 hours. Then, the absorbance was measured at 600 nm and the results were analyzed.
# Staphylococcus aureus = test: as above; assay type: cell-based
# Experimental: as §1
# [2] = test system: Staphylococcus epidermidis; test: as above; assay type: cell-based
# Experimental: as §1
# E. coli = test: as above; assay type: cell-based, Escherichia coli
# Experimental: as §1
# FPR2 = molecular target: T1, FPR2 (Homo sapiens, UniProt P25090); test: intracellular calcium ions (Fura-2/AM) in RBL cells overexpressing FPR2; assay type: cell-based
# T1 construct: expressed in transfected cells; host or cells: RBL cells overexpressing FPR2 (FPR2-RBL)
# T1 sequence (P25090 1-351): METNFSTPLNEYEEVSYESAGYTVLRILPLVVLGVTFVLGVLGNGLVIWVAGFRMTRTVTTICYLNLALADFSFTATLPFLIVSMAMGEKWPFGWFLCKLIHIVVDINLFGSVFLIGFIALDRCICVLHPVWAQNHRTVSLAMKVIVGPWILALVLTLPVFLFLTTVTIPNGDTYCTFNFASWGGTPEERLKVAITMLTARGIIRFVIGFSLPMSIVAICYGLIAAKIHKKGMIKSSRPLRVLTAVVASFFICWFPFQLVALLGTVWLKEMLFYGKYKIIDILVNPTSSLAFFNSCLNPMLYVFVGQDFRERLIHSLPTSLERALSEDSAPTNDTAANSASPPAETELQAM
# Text: To examine whether the peptide according to an embodiment of the present invention activates the in vivo immunological function of a living organism, the present inventors observed the changes in calcium ion permeability. Specifically, they measured the concentration of intracellular calcium ions to examine whether the peptide activates FPR2. To this end, the present inventors used RBL cells in which FPR2 was not expressed, RBL cells in which FPR1 was overexpressed (FPR1-RBL), and RBL cells in which FPR2 was overexpressed, and used Fura-2/AM, a staining material having a strong binding affinity for calcium, as a method for sensitive measurement of the release of intracellular calcium ions. […] Approximately 2×10^6 cells were taken each time and harvested by rapid centrifugation, and resuspended in 1 mL of Locke solution in which EGTA was added but no calcium ions were added, and the absorbance ratios at two wavelengths of 340 nm and 380 nm were monitored on a spectrophotometer. After treating with the peptide of the present invention at different concentrations (1 μM, 0.1 μM, and 0.01 μM) at intervals of about 1 minute, the difference in absorbance at two wavelengths of 340 nm and 380 nm was examined and this was later converted to the concentration of calcium ions freed into the cells according to the method of Grynkiewicz.
# [3] = test system: atopic dermatitis induced by capsaicin (Neo-Cap); test: Neo-Cap model of atopic dermatitis induced by capsaicin; assay type: in vivo, Sprague Dawley rats; conditions: 10 μM applied daily on back and ears
# Experimental: As such, to confirm whether the peptide according to an embodiment of the present invention can actually treat immune-related diseases by activating immunological functions in vivo, the present inventors examined whether the symptoms of atopic dermatitis can be ameliorated by treating the peptide on the animal model of atopic dermatitis. […]
# In Neo-Cap model, the dermatitis score was measured two weeks after the injection of capsaicin, and the control group (PBS) and NCP112 were applied daily on the back (200 μL) and both ears (50 μL) at a concentration of 10 μM, and the dermatitis score was measured at one-week intervals for three weeks. The dermatitis score was measured on the face, ears, back (total) and ears, and back (application site) according to skin conditions, and the score was standardized by setting the score at the second week (i.e., the starting point) at 1, as shown in FIG. 4.
# The mice analyzed in Experimental Example 3-1 were treated with the peptide according to an embodiment of the present invention, and after five weeks, the mice were sacrificed. […]
# [4] = test system: atopic dermatitis induced by capsaicin (2 W Cap); test: 2 W Cap model of atopic dermatitis induced by capsaicin; assay type: in vivo, Sprague Dawley rats; conditions: 10 μM applied daily on back and ears
# Text: As such, to confirm whether the peptide according to an embodiment of the present invention can actually treat immune-related diseases by activating immunological functions in vivo, the present inventors examined whether the symptoms of atopic dermatitis can be ameliorated by treating the peptide on the animal model of atopic dermatitis. Specifically, to confirm whether the peptide has the effect of ameliorating dermatitis in a model of atopic dermatitis induced by capsaicin, the present inventors observed the degree of skin improvement after treating the peptide (NCP112) according to an embodiment of the present invention on the animals with atopy (Neo-Cap and 2 W Cap) in the dermis of atopy-induced skin tissue, the applied site in the dermis, and the site with scratches. Neo-Cap, which is a representative model of atopic dermatitis, was subcutaneously injected with capsaicin (50 mg/kg) on the back skin of neonatal rats (Sprague Dawley rats) of less than 48 hours to induce atopic dermatitis. 2 W Cap, which is a model mimicking of atopic dermatitis developed in adolescent period or adults, was subcutaneously injected twice with capsaicin (25 mg/kg) of 2-week-old rats (Sprague Dawley) to induce atopic dermatitis.
# In 2 W-Cap model, the dermatitis score was measured one week after the capsaicin injection, and the control group (PBS) and NCP112 were applied daily on the back (200 μL) and both ears (50 μL) at a concentration of 10 μM, and the dermatitis score was measured at one-week intervals for two weeks, in the same manner as in Neo-Cap model.
# The mice analyzed in Experimental Example 3-1 were treated with the peptide according to an embodiment of the present invention, and after five weeks, the mice were sacrificed. The skin tissue at the site where dermatitis was induced by capsaicin treatment was removed in a size of about 3 cm×3 cm and the tissue was fixed in a 4% paraformaldehyde solution for two to three days. […]
# [5] = 10 μM peptide, 18 hours, 36° C., absorbance 600 nm
# [6] = versus control (PBS), week 5, FIG. 6
substance,measurement,setting,value
Oct-KFKWRYm [NCP112],antibacterial activity among modified peptides,[1],highest activity
same,antibacterial activity,"Pseudomonas aeruginosa; 0 to 20 μM peptide, FIG. 1",concentration-dependent manner
same,growth of bacteria,Pseudomonas aeruginosa; [5],completely inhibited the growth
same,antibacterial effect compared among the 4 kinds of bacteria,Pseudomonas aeruginosa; FIG. 1,highest antibacterial effect
same,antibacterial activity,"Staphylococcus aureus; 0 to 20 μM peptide, FIG. 1",concentration-dependent manner
same,growth of bacteria,Staphylococcus aureus; [5],completely inhibited the growth
same,antibacterial activity,"[2]; 0 to 20 μM peptide, FIG. 1",concentration-dependent manner
same,growth of bacteria,[2]; [5],completely inhibited the growth
same,antibacterial activity,"E. coli; 0 to 20 μM peptide, FIG. 1",concentration-dependent manner
same,growth of bacteria,E. coli; [5],completely inhibited the growth
same,amount of intracellular concentration increase of calcium ions,"FPR2; 1 μM, 0.1 μM and 0.01 μM peptide, FPR2-RBL cells, FIG. 2B",concentration-dependent feature
same,intracellular calcium ions,"FPR2; FPR2-RBL versus RBL and FPR1-RBL cells, FIG. 2A",rapidly increased specifically in FPR2-RBL cells
same,symptom of atopic dermatitis,[3],effect of ameliorating the symptom of atopic dermatitis
same,"epidermal layer (thickness, H&E stained skin tissue)",[3]; [6],slight decrease
same,skin conditions,[4],comparable to that of the normal conditions
same,symptom of atopic dermatitis,[4],effect of ameliorating the symptom of atopic dermatitis
same,"epidermal layer (thickness, H&E stained skin tissue)",[4]; [6],significant decrease
